Experimental data taken from patent US10342796B2, “Acrylanilide derivative, preparation method, and applications thereof in pharmacy” (Ancureall Pharmaceutical (Shanghai) Co., Ltd., priority 2015, dated 2019).

Legend:
Test in all cases: Growth inhibition GI50 in vitro (CCK8/MTT, 72 h)
Format in all cases: cell-based, human
[1] = test system: N87 (HER2 Amp); details: Homo sapiens; HER2 positive cell line; range of GI50; read-out: GI50 N87
[2] = test system: SK-BR-3 (Her2 amp); details: Homo sapiens, SK-BR-3; HER2 positive cell line; range of GI50; read-out: GI50 SK-BR-3
Protocol: Human lung adenocarcinoma cell line Calu-3 (ATCC) was cultured with 1×MEM complete medium (10% FBS, 1% double-antibiotics, 1% NEAA (Gibco), 2 mM glutamine and 1 mM of sodium pyruvate). Human breast cancer cell line SK-BR-3 was cultured with McCOY'S5A complete medium (10% FBS). Human colon cancer cell line SNU1040 (HER2 V777M positive) (ATCC) and human bronchoalveolar adenocarcinoma cell line NCI-H1781 (expressing HER2 exon 20 G776VC mutation) (ATCC) were cultured with 1×RPMI1640 complete medium (10% FBS), respectively.
The suspension cells were collected by centrifugation. The supernatant was discard and the cell pellet was resuspended and counted. Different cell concentrations (5˜10×10^4 cells/mL) were prepared according to the growth cycle of each cell line and then seeded on a 96-well plate (Corning), 100 μL/well. The cells were incubated over night at 37° C., 5% CO2. The compounds were added to the cells on the second day with 2 wells in parallel. The final concentration of organic solvent shall not exceed 1%. The cells were continually incubated for 72 h, and then subjected to MTT assay.
The present compounds and the reference compounds were dissolved with DMSO (Sigma), respectively. […] The storage concentration of compounds was 10 mM and kept at −20° C. They were diluted by 2 times or 10 times with serial dilution before using.
Dojindo CCK8 reagent kit was used as MTT assay. […] FC meter was used as microplate reader.
Adherent cell culture medium was discard and immediately replaced with fresh prepared medium which contains 10% CCK8 reagent (100 μL/well). For the suspension cells, CCK8 was directly added to 10% of the final concentration. The cells were continually incubated for 1˜4 h. When the color of control wells turned to dark yellow, the absorption value was measured at OD450 nm. The cell growth rate was calculated according to the following formula: cell growth rate (%)=100*(T−T0)/(C−T0), T=optical density of drug treatment cell well—optical density of blank control well; T0=optical density of cell well before drug treatment—optical density of blank control well; C=optical density of cell well of solvent control group—optical density of blank control well. […] The experiment was independently repeated 1˜3 times, and subject to biological statistical analysis.

[3] = test system: AU565 (Her2 amp); details: Homo sapiens, AU565; HER2 positive cell line; range of GI50; read-out: GI50 AU-565
[4] = test system: H460 (EGFR wt, Kras G61H); details: Homo sapiens, NCI-H460; EGFR wild type cell line; range of GI50; read-out: GI50 H460
[5] = test system: H1299 (EGFR wt, Nras Q61K); details: Homo sapiens, NCI-H1299; EGFR wild type cell line; range of GI50; read-out: GI50 H1299
[6] = test system: A549 (EGFR WT); details: Homo sapiens, A549; EGFR wild type cell line; range of GI50; read-out: GI50 A549
[7] = test system: A431 (EGFR WT, amplification and high expression); details: Homo sapiens, A-431; EGFR wild type cell line; range of GI50; read-out: GI50 A431
[8] = test system: PC-9 (EGFR dE746-A750); details: Homo sapiens; EGFR mutant cell line; range of GI50; read-out: GI50 PC-9
[9] = test system: H1975 (EGFR L858R/T790M); details: Homo sapiens, NCI-H1975; EGFR mutant cell line; range of GI50; read-out: GI50 H1975
[10] = test system: HCC827 (EGFR dE746-A750); details: Homo sapiens, HCC827; EGFR mutant cell line; range of GI50; read-out: GI50 HCC827
[11] = test system: PC-9ER (EGFR delE746-A750/T790M); details: Homo sapiens, PC-9/ER; EGFR mutant cell line; range of GI50; read-out: GI50 PC9ER

Row | Compound | GI50 [1] [nM] | GI50 [2] [nM] | GI50 [3] [nM] | GI50 [4] [nM] | GI50 [5] [nM] | GI50 [6] [nM] | GI50 [7] [nM] | GI50 [8] [nM] | GI50 [9] [nM] | GI50 [10] [nM] | GI50 [11] [nM]
1 | C=CC(=O)Nc1cc(Nc2nccc(-n3ccc4ccc(Cl)cc43)n2)c(OC)cc1N(C)CCN(C)C [Compound 61, N-(5-(4-(6-chloro-1H-indol-1-yl)-pyrimidin-2-ylamino)-2-((2-(dimethylamino)ethyl)-methyl-amino)-4-methoxyl-phenyl)-acrylamide] | 100 to 1000 | 100 to 1000 | 100 to 1000 | > 1000 | > 1000 | > 1000 | 100 to 1000 | 10 to 100 | < 10 | 10 to 100 | < 10
2 | C=CC(=O)Nc1cc(Nc2cc(-c3cn(CCC)c4ccccc34)ncn2)c(OC)cc1N(C)CCN(C)C [Compound 182] | 100 to 1000 | 10 to 100 | 10 to 100 | > 1000 | > 1000 | > 1000 | 100 to 1000 | 10 to 100 | 10 to 100 | 10 to 100 | 10 to 100
3 | C=CC(=O)Nc1cc(Nc2nccc(Nc3cccc(Cl)c3F)n2)c(OC)cc1N(C)CCN(C)C [Compound 14, N-(5-(4-(3-chloro-2-fluorophenyl-amino)-pyrimidin-2-ylamino)-2-(2-(dimethylamino-ethyl)-methyl-amino)-4-methoxyl-phenyl)-acrylamide] | 100 to 1000 | 100 to 1000 | 100 to 1000 | > 1000 | > 1000 | > 1000 | > 1000 | 10 to 100 | 100 to 1000 | 10 to 100 | 100 to 1000
4 | C=CC(=O)Nc1cc(Nc2nccc(Nc3cccc(Br)c3)n2)c(OC)cc1N(C)CCN(C)C [Compound 1, N-(5-(4-(3-bromophenylamino)-pyrimidin-2-ylamino)-2-(2-(dimethylamino-ethyl)-methyl-amino)-4-methoxyl-phenyl)-acrylamide] | 10 to 100 | 10 to 100 | 10 to 100 | > 1000 | > 1000 | > 1000 | 100 to 1000 | 10 to 100 | 10 to 100 | < 10 | 10 to 100
5 | C=CC(=O)Nc1cc(Nc2nccc(-n3ccc4cc(F)ccc43)n2)c(OC)cc1N(C)CCN(C)C [Compound 83] | 10 to 100 | 100 to 1000 | 100 to 1000 | > 1000 | > 1000 | > 1000 | 100 to 1000 | 10 to 100 | < 10 | < 10 | 10 to 100
6 | C=CC(=O)Nc1cc(Nc2cc(-c3cn(C)c4ccccc34)ncn2)c(OC)cc1N1CCN(CCN2CCCC2)CC1 [Compound 165, N-(4-methoxyl-5-(6-(1-methyl-1H-indol-3-yl)-pyrimidin-4-ylamino)-2-(4-(2-(pyrrolidin-1-yl)-ethyl)-piperazin-1-yl)-phenyl)-acrylamide] | 100 to 1000 | 100 to 1000 | 100 to 1000 | > 1000 | > 1000 | > 1000 | 10 to 100 | < 10 | 100 to 1000 | 10 to 100 | 10 to 100
7 | C=CC(=O)Nc1cc(Nc2cc(Nc3ccc(F)c(Cl)c3)ncn2)c(OC)cc1OCCN1CCN(C)CC1 [Compound 150, N-(5-(6-(3-chloro-4-fluoro-phenylamino)-pyrimidin-4-ylamino)-2-(2-(4-methyl-piperazin-lyl)-ethoxyl)-4-methoxyl-phenyl)-acrylamide] | 10 to 100 | < 10 | 10 to 100 | > 1000 | > 1000 | > 1000 | 10 to 100 | < 10 | < 10 | < 10 | < 10
8 | C=CC(=O)Nc1cc(Nc2nccc(-n3ccc4c(C)cccc43)n2)c(OC)cc1N(C)CCN(C)C [Compound 98, N-(5-(4-(4-methyl-1H-indol-1-yl)-pyrimidin-2-ylamino)-2-(2-(dimethylamino-ethyl)-methyl-amino)-4-methoxyl-phenyl)-acrylamide] | 10 to 100 | 10 to 100 | 100 to 1000 | > 1000 | > 1000 | > 1000 | 100 to 1000 | 10 to 100 | 10 to 100 | 10 to 100 | 10 to 100
9 | C=CC(=O)Nc1cc(Nc2nccc(Nc3ccc(OCc4ccccn4)c(Cl)c3)n2)c(OC)cc1N1CCC(N(C)C)CC1 [Compound 28] | 10 to 100 | 10 to 100 | 10 to 100 | > 1000 | > 1000 | > 1000 | 100 to 1000 | 10 to 100 | 10 to 100 | 10 to 100 | 10 to 100
10 | C=CC(=O)Nc1cc(Nc2cc(-c3cn(C4CCCC4)c4ccc(F)cc34)ncn2)c(OC)cc1N(C)CCN(C)C [Compound 193, N-(5-(6-(5-fluoro-1-cyclopentyl-1H-indol-3-yl)-pyrimidin-4-ylamino)-4-methoxyl-2-((2-dimethylamino-ethyl)-methyl-amino)-phenyl)-acrylamide] | 100 to 1000 | > 1000 | 100 to 1000 | > 1000 | > 1000 | > 1000 | > 1000 | < 10 | 10 to 100 | < 10 | 10 to 100
11 | C=CC(=O)Nc1cc(Nc2nccc(Nc3ccc(F)c(Cl)c3)n2)c(OC)cc1N(C)CCN(C)C [Compound 13, N-(5-(4-(3-chloro-4-fluorophenyl-amino)-pyrimidin-2-ylamino)-2-(2-(dimethylamino-ethyl)-methyl-amino)-4-methoxyl-phenyl)-acrylamide] | 10 to 100 | 10 to 100 | 10 to 100 | > 1000 | > 1000 | > 1000 | 100 to 1000 | 10 to 100 | 10 to 100 | 10 to 100 | 10 to 100
12 | C=CC(=O)Nc1cc(Nc2nccc(Nc3cc(OC)c(Cl)cc3Cl)n2)c(OC)cc1N(C)CCN(C)C [Compound 16, N-(5-(4-(2,4-dichloro-5-methoxyphenyl-amino)-pyrimidin-2-ylamino)-2-(2-(dimethylamino-ethyl)-methyl-amino)-4-methoxyl-phenyl)-acrylamide] | 100 to 1000 | 100 to 1000 | 100 to 1000 | > 1000 | > 1000 | > 1000 | > 1000 | 10 to 100 | 10 to 100 | 10 to 100 | 10 to 100
13 | C=CC(=O)Nc1cc(Nc2ncnc(Nc3cccc(Cl)c3)n2)c(OC)cc1N(C)CCN(C)C [Compound 108, N-(5-(4-(3-chloro-phenylamino)-[1,3,5]triazin-2-ylamino)-2-((2-dimethylamino-ethyl)-methyl-amino)-4-methoxyl-phenyl)-acrylamide] | < 10 | 10 to 100 | 10 to 100 | > 1000 | > 1000 | > 1000 | 100 to 1000 | < 10 | 10 to 100 | < 10 | < 10
